# Several values for one entry are separate records, joined by “and”; a condition that tells them apart may be missing. Equal values may be shown once. Read-outs that look alike come from different tables or passages of the source. Positions of bridges follow the written chain, without caps; N, C: chain ends. Residues, ends and D or L forms follow the SMILES beside them.
# How the values were obtained:
# [1] = molecular target: T1, human α7 nAChR (Homo sapiens, UniProt P36544); test: cell-based; conditions: for inhibition at 500 µM: read-out: Inhibition of PNU282987-evoked response
# T1 construct: α7 nAChR endogenously expressed in neuroblastoma SH-SY5Y cells; endogenous in cells; host or cells: SH-SY5Y human neuroblastoma cells
# [2] = molecular target: T2, human α9α10 nAChR (Homo sapiens, UniProt Q9GZZ6+Q9UGM1); design: method as in Lebedev et al., 2019; conditions: read-out: IC50 on α9α10 nAChR; 95% CI in brackets; ref Lebedev et al., 2019; cited from earlier work
# T2 construct: expressed in transfected cells; host or cells: Xenopus laevis oocytes injected with cRNA
# [3] = molecular target: T2, human α9α10 nAChR; test: Two-electrode voltage clamp, human α9α10 nAChR in X. laevis oocytes; type: cell-based; conditions: IC50, inhibition of ACh-evoked currents (α9α10 nAChR), 500 μM ACh, mean ± SEM
# [4] = molecular target: T3, rat α9α10 nAChR (Rattus norvegicus, UniProt P43144+Q9JLB5); test: cell-based; conditions: for IC50: 500 μM ACh, X. laevis oocytes
# T3 construct: expressed in transfected cells; host or cells: Xenopus laevis oocytes injected with cRNA
# [5] = system: SH-SY5Y cells; test: Calcium imaging, effect of compound alone on [Ca2+]i in SH-SY5Y cells; type: cell-based, human; conditions: 10 μM, without α7 nAChR activation
# T2 sequence (Q9UGM1 26-479 limits assumed): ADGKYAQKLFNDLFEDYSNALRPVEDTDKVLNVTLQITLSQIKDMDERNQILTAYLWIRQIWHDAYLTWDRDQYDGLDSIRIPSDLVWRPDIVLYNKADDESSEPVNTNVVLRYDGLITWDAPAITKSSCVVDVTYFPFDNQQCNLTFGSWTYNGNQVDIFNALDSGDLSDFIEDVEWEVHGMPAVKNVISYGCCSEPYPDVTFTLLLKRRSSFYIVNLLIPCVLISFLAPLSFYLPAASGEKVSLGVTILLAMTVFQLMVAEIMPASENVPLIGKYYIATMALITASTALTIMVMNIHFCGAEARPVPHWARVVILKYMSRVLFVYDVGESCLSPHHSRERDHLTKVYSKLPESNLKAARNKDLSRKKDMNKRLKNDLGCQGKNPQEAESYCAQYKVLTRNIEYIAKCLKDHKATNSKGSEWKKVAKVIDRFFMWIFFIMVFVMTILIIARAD
# T2 sequence (Q9GZZ6 25-450): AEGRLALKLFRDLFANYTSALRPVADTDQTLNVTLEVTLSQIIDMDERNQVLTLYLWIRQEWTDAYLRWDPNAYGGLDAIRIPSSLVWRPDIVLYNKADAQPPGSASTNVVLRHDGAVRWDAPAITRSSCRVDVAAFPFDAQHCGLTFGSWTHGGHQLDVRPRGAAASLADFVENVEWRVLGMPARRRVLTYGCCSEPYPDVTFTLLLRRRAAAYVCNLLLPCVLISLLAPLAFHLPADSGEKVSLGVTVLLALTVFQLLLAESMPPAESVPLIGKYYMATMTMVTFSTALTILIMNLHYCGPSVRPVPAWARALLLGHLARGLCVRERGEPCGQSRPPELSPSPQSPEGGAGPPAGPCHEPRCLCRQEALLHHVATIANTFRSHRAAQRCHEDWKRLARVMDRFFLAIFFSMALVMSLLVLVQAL
# T3 sequence (P43144 26-479): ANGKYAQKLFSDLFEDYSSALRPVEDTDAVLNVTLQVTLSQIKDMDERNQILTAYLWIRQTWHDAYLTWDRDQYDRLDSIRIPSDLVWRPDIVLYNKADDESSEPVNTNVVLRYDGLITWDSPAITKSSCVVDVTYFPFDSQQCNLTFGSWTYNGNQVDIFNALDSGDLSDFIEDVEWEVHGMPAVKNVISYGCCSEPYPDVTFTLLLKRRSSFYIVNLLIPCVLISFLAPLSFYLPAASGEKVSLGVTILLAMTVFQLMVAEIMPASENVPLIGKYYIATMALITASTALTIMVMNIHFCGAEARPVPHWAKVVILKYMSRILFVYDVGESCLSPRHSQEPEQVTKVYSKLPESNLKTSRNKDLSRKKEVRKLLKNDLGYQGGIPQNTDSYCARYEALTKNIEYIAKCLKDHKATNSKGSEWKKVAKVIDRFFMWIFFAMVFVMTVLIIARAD
# T3 sequence (Q9JLB5 25-447): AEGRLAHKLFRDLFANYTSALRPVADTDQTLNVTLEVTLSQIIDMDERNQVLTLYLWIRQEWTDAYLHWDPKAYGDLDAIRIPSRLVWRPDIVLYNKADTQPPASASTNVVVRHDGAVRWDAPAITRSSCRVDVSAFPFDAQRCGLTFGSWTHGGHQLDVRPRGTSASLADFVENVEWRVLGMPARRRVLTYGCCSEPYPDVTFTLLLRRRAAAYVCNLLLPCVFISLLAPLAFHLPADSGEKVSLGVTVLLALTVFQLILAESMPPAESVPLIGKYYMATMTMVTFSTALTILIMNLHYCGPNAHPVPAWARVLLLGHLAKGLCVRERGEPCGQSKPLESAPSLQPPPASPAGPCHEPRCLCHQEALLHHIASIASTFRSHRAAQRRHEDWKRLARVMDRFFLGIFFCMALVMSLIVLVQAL
# T1 sequence (P36544 23-502): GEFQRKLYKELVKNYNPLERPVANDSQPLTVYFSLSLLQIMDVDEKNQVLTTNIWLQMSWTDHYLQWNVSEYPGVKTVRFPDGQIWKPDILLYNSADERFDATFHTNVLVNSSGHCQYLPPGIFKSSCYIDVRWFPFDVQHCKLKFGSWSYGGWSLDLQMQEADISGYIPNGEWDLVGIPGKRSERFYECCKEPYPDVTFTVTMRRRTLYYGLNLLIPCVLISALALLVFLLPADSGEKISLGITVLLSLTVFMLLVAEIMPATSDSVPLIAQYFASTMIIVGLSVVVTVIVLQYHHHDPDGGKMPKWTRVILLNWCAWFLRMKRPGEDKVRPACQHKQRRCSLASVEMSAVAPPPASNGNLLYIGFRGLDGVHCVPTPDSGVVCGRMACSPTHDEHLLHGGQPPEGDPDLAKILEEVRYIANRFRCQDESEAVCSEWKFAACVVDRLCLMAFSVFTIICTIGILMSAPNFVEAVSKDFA
compound,measurement,setting,value
"N=C(N)NCCC[C@H](NC(=O)[C@H](CCCNC(=N)N)NC(=O)[C@H](CCCNC(=N)N)NC(=O)[C@H](CCCNC(=N)N)NC(=O)[C@H](CCCNC(=N)N)NC(=O)[C@H](CCCNC(=N)N)NC(=O)[C@H](CCCNC(=N)N)NC(=O)[C@@H](N)CCCNC(=N)N)C(=O)O [R8, octa-arginine]",IC50,[1],14.5 ± 1 nM
same,IC50,[2],44 nM
N=C(N)NCCC[C@@H]1NC(=O)[C@H](CCCNC(=N)N)NC(=O)[C@H](CCCNC(=N)N)NC(=O)[C@H](CCCNC(=N)N)NC(=O)[C@H](CCCNC(=N)N)NC(=O)[C@H](CCCNC(=N)N)NC(=O)[C@H](CCCNC(=N)N)NC(=O)[C@H](CCCNC(=N)N)NC(=O)[C@@H](N)CSSC[C@@H](C(=O)O)NC1=O [“cyclo”R8] (H-CRRRRRRRRC-OH; disulfide 1-10),IC50,[1],13.3 ± 3 nM
same,IC50,[3],~60 nM and 61.8 nM
"NCCCNCCCCNCCCN [Spm, spermine]",inhibition at 500 µM,[1]; SH-SY5Y,~20%
same,Inhibition of rat α9α10 nAChR at 500 μM,[4],no inhibition
"NCCCCN=C(N)N [Agm, agmatine]",inhibition at 500 µM,[1]; SH-SY5Y,~20%
"CC(CN)CNCCCCNCC(C)CN (racemic) [rac-2,11-Me2Spm]",IC50,"[4]; read-out: IC50, inhibition of rat α9α10 nAChR",~500000 nM
α-cobratoxin [CTX],Suppression of α7 nAChR activity,"[1]; compound 5 μM, 200 nM PNU282987, SH-SY5Y cells",completely suppressed
"N=C(N)NCCC[C@H](N)C(=O)NCCCNCCCNCCCCCNC(=O)[C@H](CC(N)=O)NC(=O)Cc1ccc(O)cc1O [AgTx-636, argiotoxin-636]",inhibition at 10 µM,"[1]; SH-SY5Y, read-out: Inhibition of the action of α7 nAChR agonist PNU282987",≥ 70%
same,IC50,"[4]; IC50, inhibition of ACh-evoked currents (rat α9α10 nAChR)",~200 nM and 220 nM
same,[Ca2+]i change caused by the compound alone,[5],noticeable [Ca^2+]i increase

# Reference: article PMC10758494 (Frontiers in Pharmacology, 2023)
